{
  "source": "ChEMBL document CHEMBL1152339",
  "about": "“Use of the in vivo hollow fiber assay in natural products anticancer drug discovery” (J Nat Prod, 2009)",
  "key": {"KB [1]": {"tested_on": "KB", "experiment": "Growth inhibition of human KB cells xenografted in NCr nu/nu mouse at 0.78 to 3.125 mg/kg, ip once daily administered from day 3 to 6 after implantation measured on day 7 by MTT-based hollow-fiber test", "type": "functional", "settings": "route intraperitoneal"}, "KB [2]": {"tested_on": "KB", "experiment": "Growth inhibition of human KB cells xenografted in NCr nu/nu mouse at 0.78 to 3.125 mg/kg, sc once daily administered from day 3 to 6 after implantation measured on day 7 by MTT-based hollow-fiber test", "type": "functional", "settings": "route subcutaneous"}, "LNCaP [3]": {"tested_on": "LNCaP", "experiment": "Growth inhibition of human LNCAP cells xenografted in NCr nu/nu mouse at 0.78 to 3.125 mg/kg, ip once daily administered from day 3 to 6 after implantation measured on day 7 by MTT-based hollow-fiber test", "type": "functional", "settings": "route intraperitoneal"}, "LNCaP [4]": {"tested_on": "LNCaP", "experiment": "Growth inhibition of human LNCAP cells xenografted in NCr nu/nu mouse at 0.78 to 3.125 mg/kg, sc once daily administered from day 3 to 6 after implantation measured on day 7 by MTT-based hollow-fiber test", "type": "functional", "settings": "route subcutaneous"}, "LNCaP [5]": {"tested_on": "LNCaP", "experiment": "Growth inhibition of human LNCAP cells xenografted in ip dosed NCr nu/nu mouse administered once daily from day 3 to 6 after implantation measured on day 7 by MTT-based hollow-fiber test", "type": "functional"}, "Lu1 [6]": {"tested_on": "Lu1", "experiment": "Growth inhibition of human Lu1 cells xenografted in NCr nu/nu mouse at 6.2 to 25 mg/kg, ip once daily administered from day 3 to 6 after implantation measured on day 7 by MTT-based hollow-fiber test", "type": "functional", "settings": "dose mg/kg 3-6; route intraperitoneal"}, "Lu1 [7]": {"tested_on": "Lu1", "experiment": "Growth inhibition of human Lu1 cells xenografted in NCr nu/nu mouse at 6.2 to 25 mg/kg, sc once daily administered from day 3 to 6 after implantation measured on day 7 by MTT-based hollow-fiber test", "type": "functional", "settings": "dose mg/kg 3-6; route subcutaneous"}, "LNCaP [8]": {"tested_on": "LNCaP", "experiment": "Growth inhibition of human LNCAP cells xenografted in NCr nu/nu mouse at 6.2 to 25 mg/kg, ip once daily administered from day 3 to 6 after implantation measured on day 7 by MTT-based hollow-fiber test", "type": "functional", "settings": "route intraperitoneal"}, "LNCaP [9]": {"tested_on": "LNCaP", "experiment": "Growth inhibition of human LNCAP cells xenografted in NCr nu/nu mouse at 6.2 to 25 mg/kg, sc once daily administered from day 3 to 6 after implantation measured on day 7 by MTT-based hollow-fiber test", "type": "functional", "settings": "route subcutaneous"}, "KB [10]": {"tested_on": "KB", "experiment": "Growth inhibition of human KB cells xenografted in NCr nu/nu mouse at 6.2 to 25 mg/kg, ip once daily administered from day 3 to 6 after implantation measured on day 7 by MTT-based hollow-fiber test", "type": "functional", "settings": "route intraperitoneal"}, "KB [11]": {"tested_on": "KB", "experiment": "Growth inhibition of human KB cells xenografted in NCr nu/nu mouse at 6.2 to 25 mg/kg, sc once daily administered from day 3 to 6 after implantation measured on day 7 by MTT-based hollow-fiber test", "type": "functional", "settings": "route subcutaneous"}, "Lu1 [12]": {"tested_on": "Lu1", "experiment": "Growth inhibition of human Lu1 cells xenografted in ip dosed NCr nu/nu mouse administered once daily from day 3 to 6 after implantation measured on day 7 by MTT-based hollow-fiber test", "type": "functional"}, "LNCaP [13]": {"tested_on": "LNCaP", "experiment": "Growth inhibition of human LNCAP cells xenografted in NCr nu/nu mouse at 10 to 40 mg/kg, ip once daily administered from day 3 to 6 after implantation measured on day 7 by MTT-based hollow-fiber test", "type": "functional", "settings": "route intraperitoneal"}, "LNCaP [14]": {"tested_on": "LNCaP", "experiment": "Growth inhibition of human LNCAP cells xenografted in NCr nu/nu mouse at 10 to 40 mg/kg, sc once daily administered from day 3 to 6 after implantation measured on day 7 by MTT-based hollow-fiber test", "type": "functional", "settings": "route subcutaneous"}, "LNCaP [15]": {"tested_on": "LNCaP", "experiment": "Growth inhibition of human LNCAP cells xenografted in NCr nu/nu mouse at 5 to 20 mg/kg, ip once daily administered from day 3 to 6 after implantation measured on day 7 by MTT-based hollow-fiber test", "type": "functional", "settings": "route intraperitoneal"}, "LNCaP [16]": {"tested_on": "LNCaP", "experiment": "Growth inhibition of human LNCAP cells xenografted in NCr nu/nu mouse at 5 to 20 mg/kg, sc once daily administered from day 3 to 6 after implantation measured on day 7 by MTT-based hollow-fiber test", "type": "functional", "settings": "route subcutaneous"}, "Lu1 [17]": {"tested_on": "Lu1", "experiment": "Growth inhibition of human Lu1 cells xenografted in NCr nu/nu mouse at 0.625 to 5 mg/kg, ip once daily administered from day 3 to 6 after implantation measured on day 7 by MTT-based hollow-fiber test", "type": "functional", "settings": "dose mg/kg 3-6; route intraperitoneal"}, "Lu1 [18]": {"tested_on": "Lu1", "experiment": "Growth inhibition of human Lu1 cells xenografted in NCr nu/nu mouse at 0.625 to 5 mg/kg, sc once daily administered from day 3 to 6 after implantation measured on day 7 by MTT-based hollow-fiber test", "type": "functional", "settings": "dose mg/kg 3-6; route subcutaneous"}, "LNCaP [19]": {"tested_on": "LNCaP", "experiment": "Growth inhibition of human LNCAP cells xenografted in NCr nu/nu mouse at 0.625 to 5 mg/kg, ip once daily administered from day 3 to 6 after implantation measured on day 7 by MTT-based hollow-fiber test", "type": "functional", "settings": "route intraperitoneal"}, "LNCaP [20]": {"tested_on": "LNCaP", "experiment": "Growth inhibition of human LNCAP cells xenografted in NCr nu/nu mouse at 0.625 to 5 mg/kg, sc once daily administered from day 3 to 6 after implantation measured on day 7 by MTT-based hollow-fiber test", "type": "functional", "settings": "route subcutaneous"}, "MCF7 [21]": {"tested_on": "MCF7", "experiment": "Growth inhibition of human MCF7 cells xenografted in NCr nu/nu mouse at 0.625 to 5 mg/kg, ip once daily administered from day 3 to 6 after implantation measured on day 7 by MTT-based hollow-fiber test", "type": "functional", "settings": "dose mg/kg 3-6; route intraperitoneal"}, "MCF7 [22]": {"tested_on": "MCF7", "experiment": "Growth inhibition of human MCF7 cells xenografted in NCr nu/nu mouse at 0.625 to 5 mg/kg, sc once daily administered from day 3 to 6 after implantation measured on day 7 by MTT-based hollow-fiber test", "type": "functional", "settings": "dose mg/kg 3-6; route subcutaneous"}, "[23]": {"experiment": "Acute toxicity in ip dosed mouse", "type": "organism-based", "settings": "in vivo"}, "MCF7 [24]": {"tested_on": "MCF7", "experiment": "Growth inhibition of human MCF7 cells xenografted in ip dosed NCr nu/nu mouse administered once daily from day 3 to 6 after implantation measured on day 7 by MTT-based hollow-fiber test", "type": "functional"}},
  "data": [
    {"smiles": "CC(=O)O[C@@H]1O[C@@H]([C@H]2c3cccc(O)c3C(=O)c3c(O)cc(C)cc32)[C@H](O)[C@@H](OC(=O)C=C(C)C)[C@H]1O", "note": "[ALVARADOIN H]", "values": [
      {"measurement": "growth inhibition (GI)", "setting": "KB [1]", "result": 43, "unit": "%"},
      {"measurement": "growth inhibition (GI)", "setting": "KB [2]", "result": 1, "unit": "%"},
      {"measurement": "growth inhibition (GI)", "setting": "LNCaP [3]", "result": 47, "unit": "%"},
      {"measurement": "growth inhibition (GI)", "setting": "LNCaP [4]", "result": 10, "unit": "%"},
      {"measurement": "ED50", "setting": "LNCaP [5]", "result": 290, "unit": "nM"}
    ]},
    {"smiles": "C[C@@H]1CC[C@@]2(OC1)O[C@H]1C[C@H]3[C@@H]4CC=C5C[C@@H](O[C@@H]6O[C@H](CO)[C@@H](O[C@@H]7O[C@@H](C)[C@H](O)[C@@H](O)[C@H]7O)[C@H](O)[C@H]6O[C@@H]6O[C@@H](C)[C@H](O)[C@@H](O)[C@H]6O)CC[C@]5(C)[C@H]4CC[C@]3(C)[C@H]1[C@@H]2C", "note": "[DIOSCIN]", "values": [
      {"measurement": "growth inhibition (GI)", "setting": "Lu1 [6]", "result": 25, "unit": "%"},
      {"measurement": "growth inhibition (GI)", "setting": "Lu1 [7]", "result": 0, "unit": "%"},
      {"measurement": "growth inhibition (GI)", "setting": "LNCaP [8]", "result": 37, "unit": "%"},
      {"measurement": "growth inhibition (GI)", "setting": "LNCaP [9]", "result": 36, "unit": "%"},
      {"measurement": "growth inhibition (GI)", "setting": "KB [10]", "result": 79, "unit": "%"},
      {"measurement": "growth inhibition (GI)", "setting": "KB [11]", "result": 4, "unit": "%"},
      {"measurement": "ED50", "setting": "LNCaP [5]", "result": 1700, "unit": "nM"},
      {"measurement": "ED50", "setting": "Lu1 [12]", "result": 1200, "unit": "nM"}
    ]},
    {"smiles": "COc1ccc([C@H]2COc3c(ccc4c3C=CC(C)(CCC=C(C)C)O4)C2)c(O)c1O", "note": "(some centres undefined) [NITIDULIN]", "values": [
      {"measurement": "growth inhibition (GI)", "setting": "LNCaP [13]", "result": 54, "unit": "%"},
      {"measurement": "growth inhibition (GI)", "setting": "LNCaP [14]", "result": 0, "unit": "%"},
      {"measurement": "ED50", "setting": "LNCaP [5]", "result": 9700, "unit": "nM"}
    ]},
    {"smiles": "O=C1OC[C@@H]2Cc3cc4c(cc3[C@@H](c3ccc5c(c3)OCO5)[C@H]12)OCO4", "note": "[PICROPOLYGAMAIN]", "values": [
      {"measurement": "growth inhibition (GI)", "setting": "LNCaP [15]", "result": 21, "unit": "%"},
      {"measurement": "growth inhibition (GI)", "setting": "LNCaP [16]", "result": 3, "unit": "%"},
      {"measurement": "ED50", "setting": "LNCaP [5]", "result": 3100, "unit": "nM"}
    ]},
    {"smiles": "COC(=O)[C@H]1[C@@H](O)[C@@]2(O)c3c(OC)cc(O[C@@H]4O[C@@H]([C@H](O)CO)CO[C@H]4OC)cc3O[C@@]2(c2ccc(OC)cc2)[C@@H]1c1ccccc1", "note": "[SILVESTROL]", "values": [
      {"measurement": "growth inhibition (GI)", "setting": "Lu1 [17]", "result": 12, "unit": "%"},
      {"measurement": "growth inhibition (GI)", "setting": "Lu1 [18]", "result": 0, "unit": "%"},
      {"measurement": "growth inhibition (GI)", "setting": "LNCaP [19]", "result": 15, "unit": "%"},
      {"measurement": "growth inhibition (GI)", "setting": "LNCaP [20]", "result": 12, "unit": "%"},
      {"measurement": "growth inhibition (GI)", "setting": "MCF7 [21]", "result": 20, "unit": "%"},
      {"measurement": "growth inhibition (GI)", "setting": "MCF7 [22]", "result": 5, "unit": "%"},
      {"measurement": "MTD", "setting": "[23]", "result": 2.5, "unit": "mg/kg"},
      {"measurement": "ED50", "setting": "MCF7 [24]", "result": 1.5, "unit": "nM"},
      {"measurement": "ED50", "setting": "LNCaP [5]", "result": 1.5, "unit": "nM"},
      {"measurement": "ED50", "setting": "Lu1 [12]", "result": 1.2, "unit": "nM"}
    ]}
  ]
}
